Experimental data taken from patent US20140005163A1 (NOVARTIS AG, priority 2010, published 2014).

Key:
[1] = target: T1, PI3K delta (Homo sapiens, UniProt O00329); test: PI3K delta kinase assay (Kinase-Glo luminescence); assay type: biochemical
T1 construct: for the full-length p110-d subunit are generated and fused by overlapping PCR; p85(iSH2) fusion partner (see partner chain) (N); His tag (C); made in house; host or cells: baculovirus; Tn5 (Trichoplusia ni) or TiniPro insect cells
Outline: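 Construct BV-1060, p85 iSH2–linker–full-length p110δ, His-tagged, at 10 nM, with 1 μM ATP and 10 μg/mL phosphatidylinositol in pH 7.5 Tris, 3 mM MgCl2, 50 mM NaCl, 0.05% CHAPS. Run 60 min at room temperature; remaining ATP read by Kinase-Glo luminescence; IC50 from 4-parameter logistic fit of 8 concentrations.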

[2] = Cellular CaCo2 permeability assay from apical to basal (A-B); assay type: in vitro ADME; details: human, Caco-2, read-out: Pe A-B (permeability)
Text: The permeability in 10^−6 cm/s of compounds of formula (I) have been confirmed for selected example using a cellular CaCo2 permeability assay from apical to basal (A-B): […]

[3] = test system: PKB Ser473 phosphorylation in Rat1-myr-HA-p110 alpha cells; test: Reverse protein array assay, PKB Ser473 phosphorylation in Rat1-myr-p110 alpha cells; assay type: cell-based; details: 0.5 h, pAkt Ser473, 30 minutes compound incubation, read-out: p-PKB IC50
Outline: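 Rat1 cells expressing myristoylated HA-tagged p110 alpha, beta or delta were plated for at least 20 h, then exposed to 8-step serial compound dilutions (0.2% DMSO final) for 30 min at 37 °C. Lysates were spotted at four dilutions on protein microarrays, and relative fluorescence intensity of phospho-Ser473 PKB was calculated.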

[4] = target: T2, PI3K gamma (Homo sapiens, UniProt P48736); test: PI3K gamma kinase assay (Kinase-Glo luminescence); assay type: biochemical
T2 construct: His tag (C); made in house; host or cells: baculovirus (pVL1393); Tn5 or TiniPro insect cells; construct from Roger Williams lab, MRC LMB
T2 sequence (P48736 144-1102 limits assumed): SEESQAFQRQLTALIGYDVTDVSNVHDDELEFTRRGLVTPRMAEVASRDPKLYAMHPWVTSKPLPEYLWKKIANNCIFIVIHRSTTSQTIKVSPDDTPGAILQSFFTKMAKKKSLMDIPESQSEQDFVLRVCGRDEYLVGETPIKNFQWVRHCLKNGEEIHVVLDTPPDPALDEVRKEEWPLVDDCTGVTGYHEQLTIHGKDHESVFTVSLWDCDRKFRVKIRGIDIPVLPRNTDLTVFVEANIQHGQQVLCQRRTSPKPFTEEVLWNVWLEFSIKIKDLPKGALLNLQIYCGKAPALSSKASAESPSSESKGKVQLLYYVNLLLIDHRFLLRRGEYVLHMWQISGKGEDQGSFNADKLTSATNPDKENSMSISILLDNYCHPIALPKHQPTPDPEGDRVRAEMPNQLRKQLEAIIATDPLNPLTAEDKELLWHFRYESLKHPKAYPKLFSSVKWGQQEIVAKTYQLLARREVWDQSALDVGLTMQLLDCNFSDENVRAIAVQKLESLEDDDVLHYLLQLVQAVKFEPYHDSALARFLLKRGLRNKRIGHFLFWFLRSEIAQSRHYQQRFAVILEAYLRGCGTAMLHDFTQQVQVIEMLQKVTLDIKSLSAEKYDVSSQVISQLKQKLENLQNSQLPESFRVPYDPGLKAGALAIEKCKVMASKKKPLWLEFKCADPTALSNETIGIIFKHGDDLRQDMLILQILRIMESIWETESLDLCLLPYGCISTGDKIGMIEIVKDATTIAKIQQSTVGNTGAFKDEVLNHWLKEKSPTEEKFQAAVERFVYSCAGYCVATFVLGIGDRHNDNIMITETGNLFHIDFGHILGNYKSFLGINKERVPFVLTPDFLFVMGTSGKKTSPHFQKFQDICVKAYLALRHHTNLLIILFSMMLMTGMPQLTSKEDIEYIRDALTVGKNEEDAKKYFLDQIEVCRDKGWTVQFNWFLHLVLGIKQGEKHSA
Outline: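 PI3Kγ (150 nM) reaction run 120 min at room temperature with phosphatidylinositol substrate (10 μg/mL) and ATP (1 μM) in Tris pH 7.5 buffer containing MgCl2, NaCl, CHAPS and DTT. Remaining ATP detected by Kinase-Glo luminescence; 8 concentrations per compound, IC50 from 4-parameter curve fitting.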

T1 sequence (O00329 with tags, fused parts or gaps limits assumed): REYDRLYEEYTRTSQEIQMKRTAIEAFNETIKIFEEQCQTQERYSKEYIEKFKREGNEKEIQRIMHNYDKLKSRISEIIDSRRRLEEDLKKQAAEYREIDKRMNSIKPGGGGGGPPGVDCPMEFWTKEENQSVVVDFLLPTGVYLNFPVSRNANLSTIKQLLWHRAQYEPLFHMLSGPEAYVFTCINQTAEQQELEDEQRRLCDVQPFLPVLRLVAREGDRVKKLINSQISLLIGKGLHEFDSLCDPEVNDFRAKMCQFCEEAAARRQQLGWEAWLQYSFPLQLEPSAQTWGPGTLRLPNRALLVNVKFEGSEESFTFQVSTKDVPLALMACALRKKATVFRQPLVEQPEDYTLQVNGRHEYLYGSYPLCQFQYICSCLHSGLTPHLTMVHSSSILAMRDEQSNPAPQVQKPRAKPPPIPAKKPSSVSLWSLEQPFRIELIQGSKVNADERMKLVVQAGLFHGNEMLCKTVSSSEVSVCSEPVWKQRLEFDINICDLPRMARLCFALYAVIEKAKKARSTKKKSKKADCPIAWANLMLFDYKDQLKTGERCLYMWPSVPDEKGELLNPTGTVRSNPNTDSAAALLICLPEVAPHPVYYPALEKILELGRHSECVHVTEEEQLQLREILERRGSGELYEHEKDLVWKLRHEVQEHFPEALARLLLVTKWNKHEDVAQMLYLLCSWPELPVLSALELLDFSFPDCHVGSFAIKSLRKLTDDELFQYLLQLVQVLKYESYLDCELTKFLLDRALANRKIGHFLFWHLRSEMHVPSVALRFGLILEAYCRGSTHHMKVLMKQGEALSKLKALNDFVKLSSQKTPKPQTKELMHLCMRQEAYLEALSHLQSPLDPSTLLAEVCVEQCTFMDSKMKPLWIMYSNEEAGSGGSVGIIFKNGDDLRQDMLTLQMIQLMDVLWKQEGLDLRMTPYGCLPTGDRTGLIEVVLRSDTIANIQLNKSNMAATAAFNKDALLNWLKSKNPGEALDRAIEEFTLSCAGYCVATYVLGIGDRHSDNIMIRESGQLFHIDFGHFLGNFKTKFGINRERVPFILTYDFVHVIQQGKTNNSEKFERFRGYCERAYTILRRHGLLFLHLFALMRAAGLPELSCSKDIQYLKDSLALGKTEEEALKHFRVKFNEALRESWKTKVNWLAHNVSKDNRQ

Row | SMILES | IC50 [1] | Papp A→B [2] | IC50 [3] | IC50 [4]
1 | CCn1cc(-n2c(=O)n(C)c3cnc4ccc(-c5ccc(OC)c(OC)c5)cc4c32)c(C)n1 [Example 1.6, 8-(3,4-Dimethoxy-phenyl)-1-(1-ethyl-3-methyl-1H-pyrazol-4-yl)-3-methyl-1,3-dihydro-imidazo[4,5-c]quinolin-2-one] | 11 nM | 31.6 ×10⁻⁶ cm/s | 10 nM | 157 nM
2 | COc1ccc(-c2ccc3ncc4c(c3c2)n(-c2cn(C)nc2C)c(=O)n4C)cn1 [Example 2.5, 1-(1,3-Dimethyl-1H-pyrazol-4-yl)-8-(6-methoxy-pyridin-3-yl)-3-methyl-1,3-dihydro-imidazo[4,5-c]quinolin-2-one] | 10 nM | 38.4 ×10⁻⁶ cm/s | 18 nM | 390 nM
3 | CCn1cc(-n2c(=O)n(C)c3cnc4ccc(-c5ccc(OC)nc5)cc4c32)c(C)n1 [Example 2.7, 1-(1-Ethyl-3-methyl-1H-pyrazol-4-yl)-8-(6-methoxy-pyridin-3-yl)-3-methyl-1,3-dihydro-imidazo[4,5-c]quinolin-2-one] | 19 nM | 21.5 ×10⁻⁶ cm/s | 28 nM | 217 nM
4 | CCOc1ccc(-c2ccc3ncc4c(c3c2)n(-c2c(C)nn(C)c2C)c(=O)n4C)cn1 [Example 3.3, 8-(6-Ethoxy-pyridin-3-yl)-3-methyl-1-(1,3,5-trimethyl-1H-pyrazol-4-yl)-1,3-dihydro-imidazo[4,5-c]quinolin-2-one] | 148 nM | 21 ×10⁻⁶ cm/s | 50 nM | 309 nM
5 | CCOc1ccc(-c2ccc3ncc4c(c3c2)n(-c2cn(C(C)C)nc2C)c(=O)n4C)cn1 [Example 3.7, 8-(6-Ethoxy-pyridin-3-yl)-1-(1-isopropyl-3-methyl-1H-pyrazol-4-yl)-3-methyl-1,3-dihydro-imidazo[4,5-c]quinolin-2-one] | 43 nM | 27.8 ×10⁻⁶ cm/s | 43 nM | 303 nM
6 | CCOc1ccc(-c2ccc3ncc4c(c3c2)n(-c2cn(CC(=O)N(C)C)nc2C)c(=O)n4C)cn1 [Example 3.9, 2-{4-[8-(6-Ethoxy-pyridin-3-yl)-3-methyl-2-oxo-2,3-dihydro-imidazo[4,5-c]quinolin-1-yl]-3-methyl-pyrazol-1-yl}-N,N-dimethyl-acetamide] | 112 nM | 14.8 ×10⁻⁶ cm/s | 10 nM | –
7 | Cc1nn(C)cc1-n1c(=O)n(C)c2cnc3ccc(-c4ccc(N(C)C)nc4)cc3c21 [Example 4.5, 8-(6-Dimethylamino-pyridin-3-yl)-1-(1,3-dimethyl-1H-pyrazol-4-yl)-3-methyl-1,3-dihydro-imidazo[4,5-c]quinolin-2-one] | 17 nM | 16.1 ×10⁻⁶ cm/s | 22 nM | 292 nM
8 | CCNc1cc(-c2ccc3ncc4c(c3c2)n(-c2cn(C)nc2Cl)c(=O)n4C)cnc1C [Example 87.2, 1-(3-Chloro-1-methyl-1H-pyrazol-4-yl)-8-(5-ethylamino-6-methyl-pyridin-3-yl)-3-methyl-1,3-dihydro-imidazo[4,5-c]quinolin-2-one] | 19 nM | 29.9 ×10⁻⁶ cm/s | < 5 nM | –
9 | Cc1nn(C)cc1-n1c(=O)n(C)c2cnc3ccc(-c4ccc(OCCCO)nc4)cc3c21 [Example 108, 1-(1,3-Dimethyl-1H-pyrazol-4-yl)-8-[6-(3-hydroxy-propoxy)-pyridin-3-yl]-3-methyl-1,3-dihydro-imidazo[4,5-c]quinolin-2-one] | 556 nM | – | 134 nM | 535 nM
10 | COc1ccc(-c2ccc3ncc4[nH]c(=O)n(-c5cn(C)nc5C)c4c3c2)cn1 [Example 109, 1-(1,3-Dimethyl-1H-pyrazol-4-yl)-8-(6-methoxy-pyridin-3-yl)-1,3-dihydro-imidazo[4,5-c]quinolin-2-one] | 19 nM | – | 55 nM | 286 nM
11 | Cc1nn(C)cc1-n1c(=O)n(C)c2cnc3ccc(-c4cnc5c(ccn5C)c4)cc3c21 [Example 116, 1-(1,3-Dimethyl-1H-pyrazol-4-yl)-3-methyl-8-(1-methyl-1H-pyrrolo[2,3-b]pyridin-5-yl)-1,3-dihydro-imidazo[4,5-c]quinolin-2-one] | 16 nM | – | < 5 nM | 236 nM
12 | CNC(=O)c1cc(-c2ccc3ncc4c(c3c2)n(-c2cn(C)nc2C)c(=O)n4C)cnc1OC [Example 125.1, 5-[1-(1,3-Dimethyl-1H-pyrazol-4-yl)-3-methyl-2-oxo-2,3-dihydro-1H-imidazo[4,5-c]quinolin-8-yl]-2-methoxy-N-methyl-nicotinamide] | 26 nM | – | 75 nM | 363 nM
13 | COc1ncc(-c2ccc3ncc4c(c3c2)n(-c2cn(C)nc2C)c(=O)n4C)cc1N [Example 127, 8-(5-Amino-6-methoxy-pyridin-3-yl)-1-(1,3-dimethyl-1H-pyrazol-4-yl)-3-methyl-1,3-dihydro-imidazo[4,5-c]quinolin-2-one] | 9 nM | – | 5 nM | 121 nM
14 | CCNc1cc(-c2ccc3ncc4c(c3c2)n(-c2cn(CC)nc2C)c(=O)n4C)cnc1CO [Example 155.2, 8-(5-Ethylamino-6-hydroxymethyl-pyridin-3-yl)-1-(1-ethyl-3-methyl-1H-pyrazol-4-yl)-3-methyl-1,3-dihydro-imidazo[4,5-c]quinolin-2-one] | 22 nM | 10.9 ×10⁻⁶ cm/s | 5 nM | –
15 | Cc1nn(C)cc1-n1c(=O)n(C)c2cnc3ccc(-c4cncc(N5CCOCC5)c4)cc3c21 [Example 175.1, 1-(1,3-Dimethyl-1H-pyrazol-4-yl)-3-methyl-8-(5-morpholin-4-yl-pyridin-3-yl)-1,3-dihydro-imidazo[4,5-c]quinolin-2-one] | 70 nM | 7.8 ×10⁻⁶ cm/s | 17 nM | –
16 | Cc1nn(C)cc1-n1c(=O)n(C)c2cnc3ccc(-c4cncc(N5CCC5)c4)cc3c21 [Example 179, 8-(5-Azetidin-1-yl-pyridin-3-yl)-1-(1,3-dimethyl-1H-pyrazol-4-yl)-3-methyl-1,3-dihydro-imidazo[4,5-c]quinolin-2-one] | 87 nM | 16 ×10⁻⁶ cm/s | 18 nM | –
